Test results reported in the CheMixHub viscosity set.
± gives the uncertainty stated by the source.

Assay: xn = mol fraction of the nth substance listed

CCCCCCCCCCCC + CCCCCC
viscosity (293.15 K, 100 kPa, x2 = 0.0986): 1.294 ± 0.016 mPa·s
viscosity (293.15 K, 100 kPa, x2 = 0.2): 1.18 ± 0.01 mPa·s
viscosity (293.15 K, 100 kPa, x2 = 0.2024): 1.137 ± 0.014 mPa·s
viscosity (293.15 K, 100 kPa, x2 = 0.2991): 1.003 ± 0.012 mPa·s
viscosity (293.15 K, 100 kPa, x2 = 0.4): 0.89 ± 0.02 mPa·s
viscosity (293.15 K, 100 kPa, x2 = 0.4003): 0.864 ± 0.011 mPa·s
viscosity (293.15 K, 100 kPa, x2 = 0.5036): 0.746 ± 0.009 mPa·s
viscosity (293.15 K, 100 kPa, x2 = 0.6): 0.67 ± 0.01 mPa·s
viscosity (293.15 K, 100 kPa, x2 = 0.6025): 0.635 ± 0.008 mPa·s
viscosity (293.15 K, 100 kPa, x2 = 0.7016): 0.538 ± 0.007 mPa·s
viscosity (293.15 K, 100 kPa, x2 = 0.8): 0.47 ± 0.01 mPa·s
viscosity (293.15 K, 100 kPa, x2 = 0.8003): 0.453 ± 0.006 mPa·s
viscosity (293.15 K, 100 kPa, x2 = 0.899): 0.382 ± 0.005 mPa·s
viscosity (298.1 K, 100 kPa, x2 = 0.5): 0.719 ± 0.029 mPa·s
viscosity (298.15 K, 100 kPa, x2 = 0.0986): 1.188 ± 0.015 mPa·s
viscosity (298.15 K, 100 kPa, x2 = 0.2024): 1.049 ± 0.013 mPa·s
viscosity (298.15 K, 100 kPa, x2 = 0.2991): 0.929 ± 0.012 mPa·s
viscosity (298.15 K, 100 kPa, x2 = 0.4003): 0.803 ± 0.01 mPa·s
viscosity (298.15 K, 100 kPa, x2 = 0.5036): 0.697 ± 0.009 mPa·s
viscosity (298.15 K, 100 kPa, x2 = 0.6025): 0.596 ± 0.007 mPa·s
viscosity (298.15 K, 100 kPa, x2 = 0.7016): 0.508 ± 0.006 mPa·s
viscosity (298.15 K, 100 kPa, x2 = 0.8003): 0.429 ± 0.005 mPa·s
viscosity (298.15 K, 100 kPa, x2 = 0.899): 0.363 ± 0.005 mPa·s
viscosity (298.15 K, 101 kPa, x1 = 0.1924): 0.4343 ± 0.01 mPa·s
viscosity (298.15 K, 101 kPa, x1 = 0.4248): 0.6351 ± 0.012 mPa·s
viscosity (298.15 K, 101 kPa, x1 = 0.605): 0.8243 ± 0.013 mPa·s
viscosity (298.15 K, 101 kPa, x1 = 0.8064): 1.067 ± 0.013 mPa·s
viscosity (298.15 K, 101.33 kPa, x1 = 0.0232): 0.3154 ± 0.0036 mPa·s
viscosity (298.15 K, 101.33 kPa, x1 = 0.0783): 0.3506 ± 0.0039 mPa·s
viscosity (298.15 K, 101.33 kPa, x1 = 0.1615): 0.4067 ± 0.0044 mPa·s
viscosity (298.15 K, 101.33 kPa, x1 = 0.1736): 0.4183 ± 0.0045 mPa·s
viscosity (298.15 K, 101.33 kPa, x1 = 0.3209): 0.5387 ± 0.0056 mPa·s
viscosity (298.15 K, 101.33 kPa, x1 = 0.411): 0.6213 ± 0.0064 mPa·s
viscosity (298.15 K, 101.33 kPa, x1 = 0.6005): 0.8244 ± 0.0082 mPa·s
viscosity (298.15 K, 101.33 kPa, x1 = 0.6932): 0.9294 ± 0.0092 mPa·s
viscosity (298.15 K, 101.33 kPa, x1 = 0.8557): 1.137 ± 0.011 mPa·s
viscosity (298.15 K, 101.33 kPa, x1 = 0.9271): 1.241 ± 0.012 mPa·s
viscosity (298.15 K, 101.33 kPa, x2 = 0.1128): 1.196 ± 0.015 mPa·s
viscosity (298.15 K, 101.33 kPa, x2 = 0.2137): 1.047 ± 0.013 mPa·s
viscosity (298.15 K, 101.33 kPa, x2 = 0.3024): 0.9328 ± 0.012 mPa·s
viscosity (298.15 K, 101.33 kPa, x2 = 0.4043): 0.8164 ± 0.011 mPa·s
viscosity (298.15 K, 101.33 kPa, x2 = 0.5067): 0.7076 ± 0.0095 mPa·s
viscosity (298.15 K, 101.33 kPa, x2 = 0.6062): 0.6105 ± 0.0084 mPa·s
viscosity (298.15 K, 101.33 kPa, x2 = 0.7222): 0.5009 ± 0.0072 mPa·s
viscosity (298.15 K, 101.33 kPa, x2 = 0.8039): 0.4331 ± 0.0064 mPa·s
viscosity (298.15 K, 101.33 kPa, x2 = 0.9037): 0.3631 ± 0.0057 mPa·s
viscosity (298.27 K, 101.3 kPa, x1 = 0.4998): 0.7168 ± 0.0088 mPa·s
viscosity (298.47 K, 101.3 kPa, x1 = 0.2499): 0.4774 ± 0.0059 mPa·s
viscosity (298.47 K, 101.3 kPa, x1 = 0.7481): 1.002 ± 0.012 mPa·s
viscosity (303.15 K, 100 kPa, x2 = 0.0986): 1.095 ± 0.014 mPa·s
viscosity (303.15 K, 100 kPa, x2 = 0.2024): 0.971 ± 0.012 mPa·s
viscosity (303.15 K, 100 kPa, x2 = 0.2991): 0.864 ± 0.011 mPa·s
viscosity (303.15 K, 100 kPa, x2 = 0.4003): 0.75 ± 0.009 mPa·s
viscosity (303.15 K, 100 kPa, x2 = 0.5036): 0.653 ± 0.008 mPa·s
viscosity (303.15 K, 100 kPa, x2 = 0.6025): 0.561 ± 0.007 mPa·s
viscosity (303.15 K, 100 kPa, x2 = 0.7016): 0.479 ± 0.006 mPa·s
viscosity (303.15 K, 100 kPa, x2 = 0.8003): 0.407 ± 0.005 mPa·s
